Results reported in patent US8193369B2, “Benzimidazole cannabinoid agonists” (Janssen Pharmaceutica NV, priority 2007, dated 2012).

Columns and labels:
[1] = CB1 related side-effects: body temperature lowering, LAD; type: in vivo
Experimental: CB1 related undesired side-effects such as lowering of body temperature, flat body posture, and mydriasis were measured for a number of compounds of the present invention and a number of compounds covered by reference WO-2006/048754.

[2] = molecular target: T1, human CB2 (hCB2) receptor (Homo sapiens, UniProt P34972); test: Inhibition of forskolin-activated cAMP production upon activation of human CB2 receptor (HTRF); type: cell-based; conditions: CHO-K1 cells stably transfected with hCB2; 15 μM forskolin; pEC50=-log(EC50); relative to WIN55212-2
T1 construct: expressed in transfected cells; host or cells: CHO-K1
Experimental: D. Pharmacological Examples D.1 Inhibition of cAMP in Response to Activation of the Human CB2 Receptors
Functional activity of the test compounds was assessed by measuring their potency to inhibit forskolin-activated cAMP production upon activation of human CB2 (hCB2) receptor through homogenous time resolved fluorescence (HTRF) assays.
CHO-K1 cells stably transfected with hCB2 were grown up to 80-90% confluence in T175 Falcon flasks in DMEM/NUT MIX F-12 culture medium complemented with 2% Solution A (5.10^6 IU/l penicillin G, 5 g/l streptomycin sulphate, 5.5 g/l pyruvate, 14.6 g/l L-glutamine, 1M NaOH) and 10% foetal calf serum. Before the experiments, medium was removed, cells were washed with PBS/EDTA (140 mM NaCl, 1 mM Na2-EDTA, 8 mM Na2HPO4.2H2O, 8.5 mM KH2PO4, 2.7 mM KCl, 21 mM glucose), resuspended in stimulation buffer (HBSS 1×, IBMX 1 mM, Hepes 5 mM, MgCl2 10 mM, BSA 0.1%, pH 7.4). Cells were diluted to a concentration of 10^6 cells/ml for hCB2 experiments. Assays were performed using the cAMP Dynamic HTRF kit (CIS bio international, France) according to the recommendations of the manufacturer.
For CB2, each well of a 384 flat bottom black polystyrene assay plate (Costar) was filled with 10 μl stimulation buffer containing 15 μM forskolin and either test compound (in 3% DMSO), 3% DMSO or 10 μM Win55212-2 (in 3% DMSO). Then, 20 μl of the diluted hCB2-CHO-K1 cells was added (20,000 cells/well). After 30 minutes incubation in dark at room temperature, 10 μl cAMP-XL665 and 10 μl anti-cAMP cryptate (both at a final dilution of 1/100) was added to the cells.
After equilibration of the reaction mixtures for 1 to 24 hours in dark at room temperature, fluorescence was measured at 665 nm and 620 nm using a Discovery microplate fluorescence counter (Perkin Elmer), and the signal ratio of 665 nm/620 nm was calculated. The signal ratios of the test compounds were expressed relative to the signal ratios of the DMSO control (maximal signal ratio, no inhibition of cAMP) and WIN55212-2 for hCB2, respectively (minimal signal ratio, maximal inhibition of cAMP). From the dose response curves generated for each test compound, the dose at which 50% of the maximal inhibition of cAMP level is observed (EC50, expressed in the Table as pEC50=−log (EC50) values) and the level of inhibition reached with 10 μM of the test compound compared to WIN55212-2 (for hCB2) was calculated.

T1 sequence (P34972 whole entry): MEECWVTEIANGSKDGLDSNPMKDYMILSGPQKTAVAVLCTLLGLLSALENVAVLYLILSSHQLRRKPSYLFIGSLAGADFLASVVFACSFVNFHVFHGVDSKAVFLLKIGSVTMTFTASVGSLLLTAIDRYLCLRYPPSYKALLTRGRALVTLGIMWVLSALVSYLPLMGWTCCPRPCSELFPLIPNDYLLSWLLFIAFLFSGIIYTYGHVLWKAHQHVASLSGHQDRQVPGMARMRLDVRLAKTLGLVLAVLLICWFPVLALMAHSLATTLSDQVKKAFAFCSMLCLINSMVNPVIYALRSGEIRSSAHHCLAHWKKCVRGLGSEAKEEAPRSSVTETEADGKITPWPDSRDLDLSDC

SMILES	LAD (Lowest Acceptable Dose) at which lowering of body temperature was observed in more than half of the treated animals [1]	EC50 [2]	melting point
CCS(=O)(=O)c1ccc2c(c1)nc(C(C)(C)C)n2CC1CCN(C(C)=O)CC1 [Co. No. 1]	>40 mg/kg		
CC(=O)N1CCC(Cn2c(C(C)(C)C)nc3cc(S(=O)(=O)CCCC(F)(F)F)ccc32)CC1 [Co. No. 3]	>40 mg/kg		
CCS(=O)(=O)c1ccc2c(c1)nc(C(C)(C)C)n2CC1CCN(C=O)CC1 [Co. No. 28]	>40 mg/kg		
CCS(=O)(=O)c1ccc2c(c1)nc(C(C)(C)C)n2CC1CCS(=O)(=O)CC1 [Co. No. 29]	>40 mg/kg		
CC(=O)N1CCC(Cn2c(C(C)(C)C)nc3cc(S(=O)(=O)c4ccncc4)ccc32)CC1 [Co. No. 34]	>40 mg/kg		
CC(=O)N1CCC(Cn2c(C(C)(C)C)nc3cc(S(=O)(=O)C4CCCC4)ccc32)CC1 [Co. No. 35]	>40 mg/kg		
CCS(=O)(=O)c1ccc2c(c1)nc(CC(C)(C)C)n2CC1CCN(C(C)=O)CC1 [Co. No. 46]	>40 mg/kg		
CC(C)(C)c1nc2cc(S(=O)(=O)CCCC(F)(F)F)ccc2n1CC1CCOCC1 [Co. No. B, reference compound]	10 mg/kg		
CC(C)(C)c1nc2cc(S(=O)(=O)C3CCCC3)ccc2n1CC1CCOCC1 [Co. No. C, reference compound]	5 mg/kg		
CC(C)(C)c1nc2cc(S(=O)(=O)c3ccncc3)ccc2n1CC1CCOCC1 [Co. No. D, reference compound]	10 mg/kg		
CCS(=O)(=O)c1ccc2c(c1)nc(C(C)(C)C)n2CC1CCOCC1 [Co. No. F, reference compound]	10 mg/kg		
CCS(=O)(=O)c1ccc2c(c1)nc(CC(C)(C)C)n2CC1CCN(C(C)=O)CC1 [compound 46]		53.7 nM	152 to 155 °C
CCS(=O)(=O)c1ccc2c(c1)nc(CC(C)(C)C)n2CC1CCN(C=O)CC1 [compound 48]		69.2 nM	166 to 168 °C
CC(C)(C)c1nc2cc(S(=O)(=O)c3nccs3)ccc2n1CC1CCN(C=O)CC1 [compound 49]		7.41 nM	190 °C
CC(=O)N1CCC(Cn2c(C(C)(C)C)nc3cc(S(=O)(=O)c4ccccn4)ccc32)CC1 [compound 53]		2.95 nM	205 °C
CC(=O)N1CCC(Cn2c(C(C)(C)C)nc3cc(S(=O)(=O)c4ccc(F)cc4)ccc32)CC1 [compound 59]		2.75 nM	186 °C
CC(=O)N1CCC(Cn2c(C(C)(C)C)nc3cc(S(=O)(=O)c4c(Cl)cccc4Cl)ccc32)CC1 [compound 60]		3.47 nM	224 °C
CCCC(CCC)S(=O)(=O)c1ccc2c(c1)nc(C(C)(C)C)n2CC1CCN(C(C)=O)CC1 [compound 67]		2.75 nM	132 °C
CC(=O)N1CCC(Cn2c(C(C)(C)C)nc3cc(S(=O)(=O)c4cccs4)ccc32)CC1 [compound 68]		2.95 nM	187 °C
CC(=O)N1CCC(Cn2c(C(C)(C)C)nc3cc(S(=O)(=O)c4ccccc4Cl)ccc32)CC1 [compound 71]		7.41 nM	218 °C
COc1cccc(S(=O)(=O)c2ccc3c(c2)nc(C(C)(C)C)n3CC2CCN(C(C)=O)CC2)c1 [compound 82]		2.19 nM	164 °C
CC(=O)N1CCC(Cn2c(C(C)(C)C)nc3cc(S(=O)(=O)c4cccc(C#N)c4)ccc32)CC1 [compound 84]		3.31 nM	191 °C
CC(=O)N1CCC(Cn2c(C(C)(C)C)nc3cc(S(=O)(=O)c4ccc(C(F)(F)F)cc4)ccc32)CC1 [compound 88]		0.537 nM	189 °C
CC(=O)N1CCC(Cn2c(C(C)(C)C)nc3cc(S(=O)(=O)c4cccc(Cl)c4)ccc32)CC1 [compound 90]		0.741 nM	192 °C
